Reference: PMC4879640 (Frontiers in Microbiology, 2016)

Tested on: T1, H6-PnpA (PNP 4-monooxygenase)
T1 construct: N-terminal His6 tag, pET-28a (NdeI-XhoI), E. coli Rosetta(DE3)pLysS; gene pnpA of the pnpABA1CDEF cluster (not pnpA1)
Assay type: biochemical, Burkholderia sp. SJ98
Conditions: read-out: apparent Km

Cc1cc(O)ccc1[N+](=O)[O-] [3-methyl-4-nitrophenol]
Km: 20.3 ± 2.54 µM
